One may read the EC50 as the concentration that produces a half-maximal response.

Here are results for seven compounds from patent US20220041681A1 (MEDIMMUNE LIMITED, priority 2016, published 2022).

For assay [1], the target named is T1, Human GlucR (Homo sapiens, UniProt P47871).
T1 construct: expressed in transfected cells
Put plainly: cAMP activity assay (assay 1) in assay medium. The assay is classed as cell-based. To be noted: Table 4, additional peptides, read-out: hGlucR EC50.
Description: (§1) All sample dilutions were made in duplicate.
(§2) A frozen cryo-vial of cells expressing the receptor of interest was thawed rapidly in a water-bath, transferred to pre-warmed assay media and spun at 240×g for 5 minutes. Cells were re-suspended in assay media at an optimized concentration (e.g. hGCGR cells at 1×10^5 cells/ml, hGLP-1R and hGIPR cells at 0.5×10^5 cells/ml).
(§3) To this, 5 μL cell suspension was added and the plates incubated at room temperature for 30 minutes.
(§4) cAMP levels were measured using a commercially available cAMP dynamic 2 HTRF kit (Cisbio, Cat #62AM4PEJ), following the two step protocol as per manufacturer's recommendations. In brief; anti-cAMP cryptate (donor fluorophore) and cAMP-d2 (acceptor fluorophore) were made up separately by diluting each 120 in conjugate & lysis buffer provided in the kit. 5 μL anti-cAMP cryptate was added to all wells of the assay plate, and 5 μL cAMP-d2 added to all wells except non-specific binding (NSB) wells, to which conjugate and lysis buffer was added.

Assay [2] concerns the target Human GLP1R (Homo sapiens, UniProt P43220). Put plainly: cAMP activity assay (assay 1) in assay medium. The assay is classed as cell-based. The following applies: Table 4, additional peptides, read-out: hGLP1R EC50.
Description: as §1, §2, §3, §4
The subject of assay [3] is diet induced obesity (DIO) mouse model. Briefly: Diet induced obesity (DIO) mouse model, study B. In kind it is in vivo. Here is the method:
The body weight of the animals was monitored daily throughout the dosing period. At day 14, blood samples for the measurement of plasma glucose and insulin from conscious mice were obtained after a 4-hour fasting period. Mice were then anaesthetized using isoflourane and terminal blood was collected from the capillary bed behind the eye. The following parameters were measured: blood chemistry measurements of triglycerides, total cholesterol, non-esterified fatty acids (NEFA), beta-hydroxybutyrate and fibroblast growth factor 21 (FGF21) (Table 16 and Table 17 below).

The test system is the same in assay [4]. Briefly: Diet induced obesity (DIO) mouse model, study A. The assay is classed as in vivo. The text has this: Female C57/Bl6JHsdOla (obtained from Harlan Laboratories. UK) were started on a high fat diet of D12492 (Research Diets, NJ, USA) and a chocolate confection, delicato ball (Delicata Bakverk, Sweden) at 9-11 weeks of age, and were maintained on the diet for 16 weeks prior to arrival to the animal facility, during a three week acclimation period and during drug treatment, caloric content of the two components of the diet is shown in Table 11. The mice were divided into 9 groups (n=5-6), and treatment was started at 29 weeks of age.
The body weight of the animals was monitored daily throughout die dosing period. At day 14, blood samples for the measurement of plasma glucose and insulin from conscious mice were obtained after a 4-hour fasting period. Mice were then anaesthetized using isofluorane and terminal blood was collected from the capillary bed behind the eye. The following parameters were measured: blood chemistry measurements of triglycerides, total cholesterol, non-esterified fatty acids (NEFA), beta-hydroxybutyrate and fibroblast growth factor 21 (FGF21) (Tables 14 and 15 below).

Setting [5] is: 27 nmol/kg sc twice daily, day 14.
Setting [6] is: 27 nmol/kg sc twice daily, day 14, 4-hour fasting.

Numbered stars: 1 amine (or outer) side, 2 acyl side, 3 side chain; on linkers, the order of the positions; unused ones are H or OH. Side chains are listed from the residue outwards. Peptide text beside a SMILES is read from it. * marks the point of attachment. γGlu = O=C(O)[C@H](CCC(=O)[*:2])N[*:1]; Palmitoyl = CCCCCCCCCCCCCCCC(=O)*; Ahx = NCCCCCC(=O)O; βAla = NCCC(=O)O

T1 sequence (P47871 26-477): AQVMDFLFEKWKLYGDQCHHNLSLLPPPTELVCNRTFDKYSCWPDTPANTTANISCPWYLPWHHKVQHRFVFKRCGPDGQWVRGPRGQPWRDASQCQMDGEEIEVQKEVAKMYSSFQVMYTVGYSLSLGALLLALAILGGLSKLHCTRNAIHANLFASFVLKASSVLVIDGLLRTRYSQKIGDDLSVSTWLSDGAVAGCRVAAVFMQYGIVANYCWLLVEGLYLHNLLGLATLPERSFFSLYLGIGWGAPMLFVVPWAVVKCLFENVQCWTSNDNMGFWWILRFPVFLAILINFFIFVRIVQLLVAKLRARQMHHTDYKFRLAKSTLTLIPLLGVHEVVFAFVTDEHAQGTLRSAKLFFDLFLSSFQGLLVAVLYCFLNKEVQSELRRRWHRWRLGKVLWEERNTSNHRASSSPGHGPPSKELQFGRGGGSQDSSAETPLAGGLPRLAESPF
Chain of Human GLP1R (P43220 24-463): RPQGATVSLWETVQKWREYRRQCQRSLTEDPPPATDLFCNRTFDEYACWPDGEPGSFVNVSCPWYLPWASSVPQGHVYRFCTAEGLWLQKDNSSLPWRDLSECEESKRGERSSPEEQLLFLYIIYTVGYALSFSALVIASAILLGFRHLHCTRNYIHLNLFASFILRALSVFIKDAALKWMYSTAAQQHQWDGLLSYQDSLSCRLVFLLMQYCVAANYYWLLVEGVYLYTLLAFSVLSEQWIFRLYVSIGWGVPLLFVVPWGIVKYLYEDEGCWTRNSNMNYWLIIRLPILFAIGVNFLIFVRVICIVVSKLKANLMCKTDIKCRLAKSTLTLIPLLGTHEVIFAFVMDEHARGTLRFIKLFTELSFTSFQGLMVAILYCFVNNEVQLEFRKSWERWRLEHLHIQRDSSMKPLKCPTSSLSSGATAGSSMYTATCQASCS

For the compound `CCCCCCCCCCCCCCCC(=O)N[C@@H](CCC(=O)NCCCC[C@H](NC(=O)[C@H](CO)NC(=O)[C@H](CC(=O)O)NC(=O)[C@H](CC(C)C)NC(=O)[C@H](Cc1ccc(O)cc1)NC(=O)[C@H](CCCCN)NC(=O)[C@H](CO)NC(=O)[C@H](Cc1ccc(O)cc1)NC(=O)[C@H](CC(=O)O)NC(=O)[C@H](CO)NC(=O)[C@@H](NC(=O)[C@H](Cc1ccccc1)NC(=O)[C@@H](NC(=O)CNC(=O)[C@H](CCC(=O)O)NC(=O)[C@H](CO)NC(=O)[C@@H](N)Cc1c[nH]cn1)[C@@H](C)O)[C@@H](C)O)C(=O)N[C@@H](CCCNC(=N)N)C(=O)N[C@@H](C)C(=O)N[C@@H](CCC(=O)O)C(=O)N[C@@H](CC(=O)O)C(=O)N[C@@H](Cc1ccccc1)C(=O)N[C@H](C(=O)N[C@@H](CCC(=O)O)C(=O)N[C@@H](Cc1c[nH]c2ccccc12)C(=O)N[C@@H](CC(C)C)C(=O)N[C@H](C(=O)N[C@@H](C)C(=O)NCC(=O)NCC(N)=O)C(C)C)C(C)C)C(=O)O` [g639] (H-HSEGTFTSDYSKYLDSK([γGlu-Palmitoyl])RAEDFVEWLVAGG-NH2; N-terminus assumed), in assay [1], the 50% effective concentration (EC50) was found to be 8210 nM.
As for `CCCCCCCCCCCCCCCC(=O)NCCCCCC(=O)NCCCC[C@H](NC(=O)[C@H](CO)NC(=O)[C@H](CC(=O)O)NC(=O)[C@H](CC(C)C)NC(=O)[C@H](Cc1ccc(O)cc1)NC(=O)[C@H](CCC(=O)O)NC(=O)[C@H](CO)NC(=O)[C@H](Cc1ccc(O)cc1)NC(=O)[C@H](CC(=O)O)NC(=O)[C@H](CO)NC(=O)[C@@H](NC(=O)[C@H](Cc1ccccc1)NC(=O)[C@@H](NC(=O)CNC(=O)[C@H](CCC(N)=O)NC(=O)CNC(=O)[C@@H](N)Cc1c[nH]cn1)[C@@H](C)O)[C@@H](C)O)C(=O)N[C@@H](CCCNC(=N)N)C(=O)N[C@@H](C)C(=O)N[C@@H](CCCNC(=N)N)C(=O)N[C@@H](CC(=O)O)C(=O)N[C@@H](Cc1ccccc1)C(=O)N[C@H](C(=O)N[C@@H](C)C(=O)N[C@@H](Cc1c[nH]c2ccccc12)C(=O)N[C@@H](CC(C)C)C(=O)N[C@@H](CCC(=O)O)C(=O)N[C@@H](CCCNC(=N)N)C(=O)NCC(=O)NCC(N)=O)C(C)C` [g684] (H-HGQGTFTSDYSEYLDSK([Ahx-Palmitoyl])RARDFVAWLERGG-NH2; N-terminus assumed), the EC50 in assay [2] is 0.0161 nM.
`CCCCCCCCCCCCCCCC(=O)NCCC(=O)NCCCC[C@H](NC(=O)[C@H](CO)NC(=O)[C@H](CC(=O)O)NC(=O)[C@H](CC(C)C)NC(=O)[C@H](Cc1ccc(O)cc1)NC(=O)[C@H](CCC(=O)O)NC(=O)[C@H](CO)NC(=O)[C@H](Cc1ccc(O)cc1)NC(=O)[C@H](CC(=O)O)NC(=O)[C@H](CO)NC(=O)[C@@H](NC(=O)[C@H](Cc1ccccc1)NC(=O)[C@@H](NC(=O)CNC(=O)[C@H](CCC(=O)O)NC(=O)[C@H](CO)NC(=O)[C@@H](N)Cc1c[nH]cn1)[C@@H](C)O)[C@@H](C)O)C(=O)N[C@@H](CCCNC(=N)N)C(=O)N[C@@H](C)C(=O)N[C@@H](CCCNC(=N)N)C(=O)N[C@@H](CC(=O)O)C(=O)N[C@@H](Cc1ccccc1)C(=O)N[C@H](C(=O)N[C@@H](C)C(=O)N[C@@H](Cc1c[nH]c2ccccc12)C(=O)N[C@@H](CC(C)C)C(=O)N[C@@H](CCC(=O)O)C(=O)N[C@@H](C)C(=O)NCC(=O)NCC(N)=O)C(C)C` [g734] (H-HSEGTFTSDYSEYLDSK([βAla-Palmitoyl])RARDFVAWLEAGG-NH2; N-terminus assumed): in assay [1], the EC50 amounted to 8280 nM.
Consider `CCCCCCCCCCCCCCCC(=O)N[C@@H](CCC(=O)NCCCC[C@H](NC(=O)[C@H](C)NC(=O)[C@H](C)NC(=O)[C@H](CCC(N)=O)NC(=O)CNC(=O)[C@H](CCC(=O)O)NC(=O)[C@H](CC(C)C)NC(=O)[C@H](Cc1ccc(O)cc1)NC(=O)[C@H](CO)NC(=O)[C@H](CO)NC(=O)[C@@H](NC(=O)[C@H](CC(=O)O)NC(=O)[C@H](CO)NC(=O)[C@@H](NC(=O)[C@H](Cc1ccccc1)NC(=O)[C@@H](NC(=O)CNC(=O)[C@H](CCC(=O)O)NC(=O)[C@H](C)NC(=O)[C@@H](N)Cc1cnc[nH]1)[C@@H](C)O)[C@@H](C)O)C(C)C)C(=O)N[C@@H](CCC(=O)O)C(=O)N[C@@H](Cc1ccccc1)C(=O)N[C@H](C(=O)N[C@@H](C)C(=O)N[C@@H](Cc1c[nH]c2ccccc12)C(=O)N[C@@H](CC(C)C)C(=O)N[C@H](C(=O)N[C@@H](CCCNC(=N)N)C(=O)NCC(=O)N[C@@H](CCCNC(=N)N)C(=O)NCC(=O)O)C(C)C)[C@@H](C)CC)C(=O)O` [Liraglutide, reference compound], for which the “BW day 14 (% change of vehicle mean)” value in assay [3] (27 nmol/kg sc twice daily for 14 days) is recorded as −14%. Moreover, in assay [3] (setting [5]), the “FGF 21” value is 2990 pg/mL, the HOMA is on record as 3.51, the “Hepatic TG” value was determined as 18.4 g TG/100 g tissue and the “Plasma Cholesterol” value came to 3.26 mM. For the same compound, in assay [3] (setting [5]), the “Plasma NEFA” value was determined as 0.29 mM and the “Plasma TG” value is reported as 0.28 mM. Moreover, in assay [3] (setting [6]), the Glucose worked out at 7.7 mM and the Insulin came to 0.31 nM. Further, in assay [4] (27 nmol/kg sc twice daily 14 days), the “BW day 14 (% change of vehicle mean)” value is −13.3%. Moreover, in assay [4] (27 nmol/kg, day 14), the BeHy was 345 u mol/l, the “FGF 21” value was found to be 2481 pg/mL, the HOMA came out at 2.8 and the “Hepatic TG” value stood at 13.1 g TB/100 g tissue. Besides, in assay [4] (27 nmol/kg, day 14), the Insulin was 0.3 nM, the “Plasma Cholesterol” value worked out at 3.75 mM, the “Plasma NEFA” value is recorded as 0.24 Mm and the “Plasma TG” value was 0.24 mM. Further, in assay [4] (27 nmol/kg, day 14, 4-hour fasting), the Glucose was found to be 8.0 mM.
For `CCCCCCCCCCCCCCCC(=O)N[C@@H](CCC(=O)NCCCC[C@H](NC(=O)[C@H](CO)NC(=O)[C@H](CC(=O)O)NC(=O)[C@H](CC(C)C)NC(=O)[C@H](Cc1ccc(O)cc1)NC(=O)[C@H](CCC(=O)O)NC(=O)[C@H](CO)NC(=O)[C@H](Cc1ccc(O)cc1)NC(=O)[C@H](CC(=O)O)NC(=O)[C@H](CO)NC(=O)[C@@H](NC(=O)[C@H](Cc1ccccc1)NC(=O)[C@@H](NC(=O)CNC(=O)[C@H](CCC(N)=O)NC(=O)CNC(=O)[C@@H](N)Cc1c[nH]cn1)[C@@H](C)O)[C@@H](C)O)C(=O)N[C@@H](CCCNC(=N)N)C(=O)N[C@@H](C)C(=O)N[C@@H](CCCNC(=N)N)C(=O)N[C@@H](CC(=O)O)C(=O)N[C@@H](Cc1ccccc1)C(=O)N[C@H](C(=O)N[C@@H](C)C(=O)N[C@@H](Cc1c[nH]c2ccccc12)C(=O)N[C@@H](CC(C)C)C(=O)N[C@H](C(=O)N[C@@H](C)C(=O)NCC(=O)NCC(N)=O)C(C)C)C(C)C)C(=O)O` [g735] (H-HGQGTFTSDYSEYLDSK([γGlu-Palmitoyl])RARDFVAWLVAGG-NH2; N-terminus assumed), in assay [2], the 50% effective concentration (EC50) worked out at 0.161 nM.
As to `CCCCCCCCCCCCCCCC(=O)NCCCCCC(=O)NCCCC[C@H](NC(=O)[C@H](CO)NC(=O)[C@H](CC(=O)O)NC(=O)[C@H](CC(C)C)NC(=O)[C@H](Cc1ccc(O)cc1)NC(=O)[C@H](CCC(=O)O)NC(=O)[C@H](CO)NC(=O)[C@H](Cc1ccc(O)cc1)NC(=O)[C@H](CC(=O)O)NC(=O)[C@H](CO)NC(=O)[C@@H](NC(=O)[C@H](Cc1ccccc1)NC(=O)[C@@H](NC(=O)CNC(=O)[C@H](CCC(N)=O)NC(=O)CNC(=O)[C@@H](N)Cc1c[nH]cn1)[C@@H](C)O)[C@@H](C)O)C(=O)N[C@@H](CCCNC(=N)N)C(=O)N[C@@H](C)C(=O)N[C@@H](C)C(=O)N[C@@H](CC(=O)O)C(=O)N[C@@H](Cc1ccccc1)C(=O)N[C@H](C(=O)N[C@@H](C)C(=O)N[C@@H](Cc1c[nH]c2ccccc12)C(=O)N[C@@H](CC(C)C)C(=O)N[C@@H](CCC(=O)O)C(=O)N[C@@H](CCCNC(=N)N)C(=O)NCC(=O)NCC(N)=O)C(C)C` [g683], the concentration giving a half-maximal response (EC50) in assay [1] is 0.372 nM.
`CCCCCCCCCCCCCCCC(=O)N[C@@H](CCC(=O)NCCCC[C@H](NC(=O)[C@H](CCC(=O)O)NC(=O)[C@H](CO)NC(=O)[C@H](Cc1ccc(O)cc1)NC(=O)[C@H](CC(=O)O)NC(=O)[C@H](CO)NC(=O)[C@@H](NC(=O)[C@H](Cc1ccccc1)NC(=O)[C@@H](NC(=O)CNC(=O)[C@H](CCC(N)=O)NC(=O)[C@H](CO)NC(=O)[C@@H](N)Cc1c[nH]cn1)[C@@H](C)O)[C@@H](C)O)C(=O)N[C@@H](CC(C)C)C(=O)N[C@@H](CC(=O)O)C(=O)N[C@@H](CO)C(=O)N[C@@H](CCC(=O)O)C(=O)N[C@@H](CCCNC(=N)N)C(=O)N[C@@H](C)C(=O)N[C@@H](CCCNC(=N)N)C(=O)N[C@@H](CC(=O)O)C(=O)N[C@@H](Cc1ccccc1)C(=O)N[C@H](C(=O)N[C@@H](C)C(=O)N[C@@H](Cc1c[nH]c2ccccc12)C(=O)N[C@@H](CC(C)C)C(=O)N[C@H](C(=O)N[C@@H](C)C(=O)NCC(=O)NCC(N)=O)C(C)C)C(C)C)C(=O)O` [g802] (H-HSQGTFTSDYSEK([γGlu-Palmitoyl])LDSERARDFVAWLVAGG-NH2; N-terminus assumed): the EC50 in assay [2] is 0.0364 nM.
